Source: patent US20140142140A1, “PHARMACEUTICAL COMPOSITION FOR NEUROLOGICAL DISORDERS” (priority 2011, published 2014)
Read-outs that look alike come from different tables or passages of the source.

Legend:
[1] = tested on: patients with closed head injury; experiment: Case reports, Acquired Brain Injury (Example 4); assay type: in vivo, human
[2] = tested on: patients with schizophrenia; experiment: Case reports, Schizophrenia (Example 7); assay type: in vivo, human
Description: Patient 7A: Adult, initially diagnosed with schizophrenia in adolescence. Long history of impairment with predominant paranoid delusions controlled with antipsychotic medication although still experiencing significant relapses despite consistent adherence to the pharmacotherapy regime. Significant social impairment, unable to sustain employment and requires support. Prominent negative symptoms and social deficits, unable to sustain eye contact when speaking. Speech slow, effortful and fatiguing. […] Prosody and rate of speech both improved. Patient 7B: Adult initially diagnosed with schizophrenia during adolescence, following many years of prominent positive symptoms with severe behavioural disturbances and violence requiring periods of hospitalisation. Patient has never been able to sustain employment and requires significant social support to maintain functioning. Prominent thought disorder and general social disengagement. […] Able to sustain and enjoy social interaction in a sheltered workshop which had never occurred previously.

[3] = tested on: patient with chronic neck pain; experiment: Case report, Chronic Pain (Example 12); assay type: in vivo, human
Experimental: A further sublingual dose of phenyloin 1 mg was taken 15 mins after the first dose.

[4] = tested on: individuals with symptoms of ADHD
[5] = cited from earlier work
[6] = tested on: mood stabilisation or epileptic symptoms or events; conditions: per day; cited from earlier work
[7] = Patient 4A, test dose less than 3 mg via buccal mucosa
[8] = Patient 4B, test sublingual dose 1 mg

SMILES: O=C1NC(=O)C(c2ccccc2)(c2ccccc2)N1 [phenyloin, 5,5-diphenylhydantoin]
- clinical response to increased dose, following day ([1]; Patient 4A, dose increased, second day): no dramatic improvement
- functioning over five days after cessation ([1]; Patient 4A, phenyloin ceased, followed by deterioration to pre-phenyloin functioning): gradual improvement in their functioning
- developmental Eye Movement Test and Stroop test ([1]; Patient 4A, repeated sublingual dose): consistent with the improved cognitive functioning
- clinical response to repeated dose, third day ([1]; Patient 4A, same increased dose, third day): noticeable deterioration in their ability to focus and organize their thinking
- ability to focus [1, 7]: dramatic and unexpected improvement in their ability to focus
- motor tics and vocalisations [1, 7]: repetitive chanting and hand movements ceased
- reading ([1]; Patient 4B, 3 mg): began reading for the first time in 10 years
- ability to organise and undertake tasks ([1]; Patient 4B, initial dose of 3 mg): unexpected and dramatic improvement in the ability to organise and undertake tasks
- effort required for communication [1, 8]: reduction in the effort required for communication
- subjective vision [1, 8]: enhanced clarity of vision
- irritability and sense of being overwhelmed after a further dose ([1]; Patients 4A and 4B, further dose): temporary relief
- duration of sustained improvements ([1]; both cases (Patients 4A and 4B)): over 12 months
- communication, prosody and rate of speech ([2]; Patient 7A (on antipsychotic medication), 2 mg daily): significant improvement in ability to communicate with less effort
- speech and reading aloud a standard text ([2]; Patient 7B, 1 mg sublingual): significant improvement in speech and ability to read aloud a standard text
- effects when withdrawn ([2]; Patient 7B, phenyloin withdrawn): Positive effects abated
- freedom of movement without pain ([3]; additional sublingual dose 1 mg on top of 3 mg modified release): further acute improvement in the freedom of movement without pain
- control of chronic pain on maintenance ([3]; daily dose 3 mg modified release capsule): control of the chronic pain was maintained
- duration of relief ([3]; sublingual 1 mg): approximately 10 min
- vision during relief ([3]; sublingual 1 mg): enhancement in their vision
- intensity of the pain after dose ([3]; sublingual 1 mg, from 10/10 (most severe) before dose): 5/10
- invasive and distressing nature of cervical pain ([3]; ultra low dose): reduced with unexpected efficacy and rapidity
- duration of improvement on ceasing before deterioration ([4]; Patient 3A): up to 7 days
- most efficacious dose ([4]; Patient 3A): 0.1 mg daily
- ADHD symptoms, clinical response ([4]; Patient 3A (on tricyclic antidepressant and dexamphetamine), 30 mg capsule): temporarily associated with improvement in clarity of thoughts and eye contact during conversation
- clinical response on reintroduction at a lower dose ([4]; Patient 3A, lower dose): initial benefit that associated with rapid loss of efficacy
- functioning after withdrawal ([4]; Patient 3A, phenyloin withdrawn): initial improvement then later worsening to the pre-phenyloin functioning
- side effects of higher doses ([4]; in vivo): significant cognitive side effects
- efficacy of higher doses ([4]; individuals with symptoms of ADHD, higher doses): ineffective
- symptoms of ADHD, clinical response ([4]; individuals with symptoms of ADHD, ultra low doses): improvements were noted
- half-life ([5]; high doses): prolonged
- metabolism ([5]; in vivo): almost completely metabolized in the liver
- time for plasma concentration to reach steady-state level ([5]; in vivo): 1-2 weeks
- half-life ([5]; low doses): less than 20 h
- Minimum typical dose/day effective for mood stabilisation or treatment of epileptic symptoms or events [6]: 200 mg
